Measurements reported in patent US20110014185A1, “METHODS INVOLVING GRAF POLYPEPTIDES” (priority 2008, published 2011).
Entries after “also recorded” stand apart in the source; their conditions may differ.

How the values were obtained:
HeLa cells [1] = test: GRAF1 localisation by immunofluorescent staining; type: cell-based, human; settings: for colocalisation of GRAF1 with focal complex markers / number of GRAF1-positive tubules: 40 uM Y-27632 for 40 minutes
Method: FIG. 8 GRAF1 mediated trafficking is dependent upon dynamin and small G-proteins. a, HeLa cells incubated either with medium including vehicle (DMSO) or 50 um dynasore for 15 minutes before addition of dextran to these, cells for a further 15 minutes, (with DMSO/dynasore concentrations being retained throughout), before fixation and staining for GRAF1, dextran and paxillin. […] Note the absence of GRAF1-positive tubules in transfected cells. Scale bars=10 um. […] Note that endogenous GRAF1 tubes originate from within rings of beta1-integrins (a). […] Protein expression and purification Antibodies and constructs used are described in supplemental methods. Recombinant proteins were expressed in a BL21 (DE3) pLysS E-coli strain as Glutathione Stransferase (GST)-fusion proteins and purified using glutathione-Sepharose 4B beads (Amersham Biosciences) and gel filtration on a sephacryl S-200 column (Amersham) as previously described27. For analysis of endogenous protein expression, cell lines were grown according to instructions from American Tissue Culture Collection, harvested and lysed in 1% NP-40 in PBS supplemented with protease inhibitors. After a 20,000 g centrifugation the supernatant was analysed by SDS-PAGE and immunoblotting. Protein and lipid interaction assays Liposomes from total brain lipids (FOLCH fraction I) (Sigma Aldrich), from synthetic lipids (Avanti Polar Lipids), and liposomes of a specified diameter were generated as previously described10. Liposome binding assays for lipid specificity and curvature sensitivity was performed as previously described10. Briefly, proteins were incubated together with liposomes followed by centrifugation and analysis of the pellet and supernatant by SDS-PAGE and Coomassie staining. For immunoprecipitation experiments, rat brain cytosol was generated by homogenisation of rat brains in buffer (25 mM HEPES, 150 mM NaCl, 1 mM DTT, 0.1% Triton X-100 and protease inhibitors), before centrifugation at 50,000 rpm for 30 mins at 4i ? C. The supernatant was removed and added to protein A Sephorose 4B beads (Amersham Biosciensis) to which antibodies had been previously bound and incubated at 4° C. for 3 hrs. Beads were washed three times in buffer (25 mM HEPES, 150 mM NaCl) supplemented with 1% NP-40, and once in buffer without NP-40 before analysis by SDS-PAGE combined with immunoblotting or Coomassie staining. Pull-down experiments against rat brain cytosol using purified proteins and identification by mass-spectrometry were performed as previously described27. In vitro liposome tubulation assays were performed and analysed as previously described 10. Cell culture and transfections HeLa cells were grown in RPM1 1640 media (GIBCO) supplemented with L-Glutamine and 10% fetal bovine serum and transfected using Genejuice (Novagen) for transient protein expression. For primary cultures, rat hippocampal neurons/astrocytes were prepared by trypsin digestion and mechanical trituration from E18 or P1 Sprague-Dawley rats and plated onto poly L-lysine coated coverslips. Cells were cultured in B27-supplemented Neurobasal media. For GRAF1 depletion, HeLa cells were transfected with stealth siRNAs specific against human GRAF1 (Invitrogen) using Lipofectamine 2000 (Invitrogen) according to manufacturers instructions. Cells were cultured for an additional 48 hrs for efficient silencing of the GRAF1 expression. Stealth Block-it siRNA (Invitrogen) was used as a control. AP2 siRNA was used as previously described28. […]

[2] = tested on: GRAF1 BAR+PH overexpressing cells; test: localisation of overexpressed GFP-tagged GRAF1 BAR+PH protein, confocal microscopy; type: cell-based; settings: 1 uM nocodazole for 1 hr
From the text: FIG. 9 Membrane tubules generated by the GRAF1 BAR+PH domain in vivo are mobile structures dependent upon microtubules. a, Representative Coomassie-stained gel of a typical liposome co-sedimentation assay with GST-tagged BAR+PH and liposomes of different diameters quantified in FIG. 2a (P=pellet, S=supernatant). b, Confocal micrographs showing the tubular localisation of overexpressed myc-tagged BAR+PH protein in HeLa cells and the cytoplasmic localisation of a similarly overexpressed protein with a BAR domain mutation (KK131/132EE). Scale bars=10 um. c, Electron micrographs of negatively-stained liposomes incubated in the presence or absence of GST-tagged GRAF1 BAR+PH protein. Note the presence of tubular structures present with BAR+PH protein and their absence in the control incubation. Scale bars=200 nm. d, Confocal micrographs of cells overexpressing GFP-tagged GRAF1 BAR+PH protein left untreated (Panel 1) or treated with 1 uM nocodazole for 1 hr and fixed immediately (Panel 2) or left to recover for 30 mins after nocodazole washout (Panel 3). Cells were then stained for beta-tubulin (lower images). GRAF1 BAR+PH-positive tubular structures were not present in nocodazole treated cells but recovered after nocodazole washout where they are observed to colocalise with beta-tubulin. e, Live cell spinning disc confocal imaging of a GFP-tagged GRAF1 BAR+PHover expressing cell at 20° C. […]

[3] = acute ischaemic stroke; cited from earlier work
HeLa cells [4] = test: tubular dextran uptake by immunofluorescence; type: cell-based, human; settings: 50 um dynasore 15 minutes before dextran, further 15 minutes
Method: FIG. 8 GRAF1 mediated trafficking is dependent upon dynamin and small G-proteins. a, HeLa cells incubated either with medium including vehicle (DMSO) or 50 um dynasore for 15 minutes before addition of dextran to these, cells for a further 15 minutes, (with DMSO/dynasore concentrations being retained throughout), before fixation and staining for GRAF1, dextran and paxillin. […] Note the absence of GRAF1-positive tubules in transfected cells. Scale bars=10 um.
Protein expression and purification Antibodies and constructs used are described in supplemental methods. Recombinant proteins were expressed in a BL21 (DE3) pLysS E-coli strain as Glutathione Stransferase (GST)-fusion proteins and purified using glutathione-Sepharose 4B beads (Amersham Biosciences) and gel filtration on a sephacryl S-200 column (Amersham) as previously described27. For analysis of endogenous protein expression, cell lines were grown according to instructions from American Tissue Culture Collection, harvested and lysed in 1% NP-40 in PBS supplemented with protease inhibitors. After a 20,000 g centrifugation the supernatant was analysed by SDS-PAGE and immunoblotting. […] In vitro liposome tubulation assays were performed and analysed as previously described 10. […]

Which “colocalisation of GRAF1 with focal complex markers” value (HeLa cells [1]) does the source give for `C[C@@H](N)[C@H]1CC[C@H](C(=O)Nc2ccncc2)CC1` [Y-27632] here?
Its value is “vinculin is found mostly in focal complexes where it co-localises with GRAF1”.

And the “number of GRAF1-positive tubules” value (HeLa cells [1])?
The value was “increases the number of GRAF1-positive tubules”.

What about the “colocalisation of GRAF1 with focal complex markers” value (HeLa cells [1]; listed as Rho kinase inhibitor) of the same compound?
Its value is “increased the colocalisation of GRAF1 with 1-integrin, vinculin and dynamin”.

What about the “number of GRAF1-positive tubules” value (HeLa cells [1]; listed as Rho kinase inhibitor) of the same compound?
The value was “dramatically increased the numbers of GRAF1-positive tubules”.

For `COC(=O)Nc1nc2ccc(C(=O)c3cccs3)cc2[nH]1` [nocodazole], which “GRAF1 BAR+PH-positive tubular structures” value [2] is on record?
Its value is “not present; also recorded: abolishes the tubular localisation”.

For `O=S(=O)(c1cccc2cnccc12)N1CCCNCC1` [fasudil], which “toxicity in clinical trials” value [3] is on record?
Its value is “non-toxic”.

With `O=C(N/N=C/c1ccc(O)c(O)c1)c1cc2ccccc2cc1O` [dynasore] as the compound, how does the “GRAF1-positive tubular structures / GRAF1 distribution” value (HeLa cells [1]; 50 um dynasore) read?
The value was “redistribute from tubular endocytic membranes to basal complexes; also recorded: reduction in GRAF1-positive tubular structures; also recorded: redistributed in these cells from tubular structures to basal punctae and rings”.

And the tubular dextran uptake (HeLa cells [4])?
The tubular dextran uptake was “loss of tubular endocytosis through the CLIC/GEEC pathway; also recorded: profound reduction in tubular dextran uptake; also recorded: profoundly reduced ability to endocytose dextran in tubular structures”.
